According to US8216777B2, “Compositions and methods for the treatment or prevention of chemoresistant neoplasia” (The Johns Hopkins University, priority 2006, dated 2012):
Blank lines part the entries; values can stand above or below the compound they belong to.

Tests used:
[1] = tested on: Renca renal carcinoma cells; assay: cells; assay type: cell-based
From the text: The effect of Nrf2 siRNA on the killing of Renca renal carcinoma cells was examined using etoposide, another widely used anticancer drug. To generate stable Renca cell lines that over-expressed Nrf2 siRNA and non-specific scramble siRNA (SC siRNA), the siRNA sequence was converted into short hairpin RNA (shRNA) and cloned in to a BLOCK-IT U6 RNAi Entry Vector (Invitrogen). The shRNA construct was packaged into a lentiviral vector, and transduced into Renca cell lines. Recombinants were selected with antibiotic. Renca cells stably expressing Nrf2 siRNA and non-specific LacZ siRNA were screened, and two clones expressing Nrf2 siRNA showing maximum knockdown of Nrf2 message were selected for further characterization. A cell viability assay was performed using these clones using etoposide as the chemotherapeutic drug. […] Cell viability was measured using the MTT [3-(4,5-dimethylthiazol-2-yl)-2,5-diphenyltetrazolium bromide] assay after 48 hours. Briefly, cells were transfected with 50 nM siRNAs two times within a 48 h interval and, 24 hours after the second transfection, cells were plated at a density of 7,500 cells/well in 180 μl of growth media in 96-well plates. […] After 96 h, drug cytotoxicity was evaluated by using a 3-(4,5-dimethylthiazol-2-yl)-2,5-diphenyl tetrazolium bromide (MTT; Sigma) reduction conversion assay. […]

[2] = tested on: Nrf2; assay: ARE-luciferase transcriptional reporter assay; assay type: cell-based, mice; details: Hepa cells stably transfected with pARE-luc; 5, 10, 50 μM
Experimental: In this example, a high throughput approach to screen different chemicals for their potency to inhibit Nrf2 activation is described. A cell based transcriptional reporter assay approach was used for the identification of agents that inhibit Nrf2 mediated transcription. Hepa cells, which are mice liver carcinoma cells, were stably transfected with the ARE-luciferase reporter vector, and plated on to 96 or […] well plates. After overnight incubation, the cells were pretreated for 1-3 hours with different compounds, and challenged with a known Nrf2 activator, sulforaphane and dibenzoylmethane (DBM). Luciferase activity was measured after 6 hours following the last treatment using a commercially available system.

[3] = tested on: Nrf2 mRNA; assay: Nrf2 transcript degradation after siRNA transfection, real time TAQMAN PCR; assay type: cell-based, human; details: A549; for relative potency among the Nrf2 siRNA duplexes: Nrf2 transcript, 24 and 48 hours
Experimental: To study the degradation of Nrf2 mRNA with siRNA in a time dependent manner, a pooled mixture of the generated duplexes were transfected into A549 human non-small cell lung carcinoma cell line. As a control, a non-specific scrambled siRNA duplex (SC) was used. Transfection vehicle alone was also used as control. Total RNA was isolated after 24, 48 and 72 hours. The amount of Nrf2 transcript was measured using real time TAQMAN PCR. […] These five ND duplexes were again screened using the same assay to measure amount of Nrf2 transcript as described above.
Total RNA was extracted from lung tissues and or cells using RNeasy kit (Qiagen, Valencia Calif.) and was quantified by UV absorbance spectrophotometry. The reverse transcription reaction was performed by using the Superscript First Strand Synthesis system (Invitrogen, Carlsbad Calif.) in a final volume of 20 μl containing 2 μg of total RNA, 100 ng of random hexamers, 1× reverse transcription buffer, 2.5 mM MgCl2, 1 mM dNTP, 10 units of RNaseOUT, 20 units of Superscript reverse transcriptase, and DEPC-treated water. Quantitative real time RT-PCR analyses of Human KEAP1, NRF2, GCLc, GCLm, GSR, PRDX1, GSTA3, GSTA2, NQO1, MRP1 and MRP2 were performed by using assay on demand primers and probe sets from Applied Biosystems. Assays were performed by using the ABI 7000 Taqman system (Applied Biosystems, Foster City Calif.). β-ACTIN was used for normalization.
The siRNA sequence targeting NRF2 corresponds to the coding region 1903-1921 nt (5′-[…]-3′; SEQ ID NO:27) in the NRF2 cDNA. The NRF2 siRNA duplex with the following sense and antisense sequences was used: 5′-GUAAGAAGCCAGAUGUUAAdUdU (sense; SEQ ID NO:50) and dUd[…]-5′ (antisense; SEQ ID NO:28). To confirm the specificity of the inhibition, the siCONTROL non-targeting siRNA 1 (NS siRNA; 5′[…] 3′; SEQ ID NO:29) with microarray-defined signature was used as a negative control. All of the siRNA duplexes were synthesized by Dharmacon Research, Inc. (Lafayette). Cells in the exponential growth phase were plated at a density of 0.2×10^6 cells/ml, grown for 12 h, and transfected twice at an interval of 48 h with 50 nM siRNA duplexes using Lipofectamine 2000 and OPTI-MEMI reduced serum medium (Invitrogen, Carlsbad Calif.) according to the manufacturer's recommendations. Concentrations of siRNAs were chosen on the basis of dose-response studies.

Compound: COc1cc([C@@H]2c3cc4c(cc3[C@@H](O[C@@H]3O[C@@H]5CO[C@@H](C)O[C@H]5[C@H](O)[C@H]3O)[C@H]3COC(=O)[C@H]23)OCO4)cc(OC)c1O [Etoposide, etoposide]
- viability at 250 µM ([1]; Renca, read-out: viable cells): ~100%
- viability ([1]; mouse, 48 h, 250 μM): −60%

Compound: O=C(CC(=O)c1ccccc1)c1ccccc1 [dibenzoylmethane]
- luciferase activity [2]: increase in luciferase activity

- luciferase activity [2]: increase in luciferase activity
Compound: C[S+]([O-])CCCCN=C=S (stereo not drawn) [sulforaphane]

Compound: ND1: siRNA duplex, Nrf2 mRNA (NM_006164) position 1686-1704; sense SEQ ID NO: 1 CUAGAGCAAGAUUUAGAUCUU, antisense SEQ ID NO: 5 (antisense GAUCUAAAUCUUGCUCUAGUU; listed as RNA, chemistry not given here)
- relative potency among the Nrf2 siRNA duplexes [3]: most potent

Compound: ND3: siRNA duplex, Nrf2 mRNA position 1903-1921; sense SEQ ID NO: 2 GUAAGAAGCCAGAUGUUAAUU, antisense SEQ ID NO: 6 (antisense UUAACAUCUGGCUUCUUACUU; listed as RNA, chemistry not given here)
- relative potency among the Nrf2 siRNA duplexes [3]: most potent
- degradation of Nrf2 message ([3]; after 24 and 48 hours, individual duplexes): maximum message degradation

Compound: ND4: siRNA duplex, Nrf2 mRNA position 1563-1581; sense SEQ ID NO: 3 AUGAUGUCCAAAGAGCAGUUU, antisense SEQ ID NO: 7 (antisense ACUGCUCUUUGGACAUCAUUU; listed as RNA, chemistry not given here)
- relative potency among the Nrf2 siRNA duplexes [3]: most potent

Compound: ND5: siRNA duplex, Nrf2 mRNA position 1485-1463; antisense SEQ ID NO: 4 UUCAUCUCUUGUGAGAUGAGCCUCC, sense SEQ ID NO: 8 (sense GGAGGCUCAUCUCACAGAGAUGAA; listed as RNA, chemistry not given here)
- relative potency among the Nrf2 siRNA duplexes [3]: most potent
